Data on four molecules can be found in patent US4407806A, “Fungicidal, herbicidal and plant growth regulating pyridyl-containing ethers” (Chevron Research Company, priority 1981, dated 1983).

Common to all, as to assay type: in vivo
One assay relates to Cotton plants. The assay is described as follows: Cotton Regrowth. The conditions noted are these: Gossypium hirsutum, 13 to 18 days, 100% is total inhibition, read-out: Regrowth (percent inhibition of cotton regrowth). As for the experimental part:
Compounds of this invention were tested to determine their plant-growth regulating effects on cotton leaf regrowth.
Cotton plants, 4 to 5 weeks old, containing 4 true leaves above the cotyledonary leaves are employed. Growth beyond the second true leaf was removed. Within 24 hours the plants are sprayed with a 2000 ppm solution of the test compound. After spraying, the plants are transferred to a greenhouse maintained at 85° F. (±5° F.) and incubated there for from 13 to 18 days. The plants during this period are sub-irrigated in 1/4" of water.
After this period, regrowth is determined as a percent inhibition of auxiliary bud regrowth--100% is total inhibition while 0% is no inhibition.

The test system of assay [1] is Bean Powdery Mildew organism Erisiphe polygoni. The assay is described as follows: Bean Powdery Mildew control. Conditions: 240 h, 10 days, vs untreated check, read-out: Fungicidal Activity Control %, Bean P.M. As for the experimental part: The compounds of the invention were tested for the control of the Bean Powdery Mildew organism […] polygoni. Seedling bean plants were sprayed with a 250 ppm solution of the test compound in acetone, water and a nonionic emulsifier. The sprayed plants were then inoculated 1 day later with organism. […] The percent disease control provided by a given test compound was based on the percent disease reduction relative to the untreated check plants.

Assay [2] has as its system Watergrass (Echinochloa crusgalli). As to the kind of experiment: Pre-emergent herbicidal test. Conditions: Echinochloa crus-galli, 504 h; pre-emergence; 33 micrograms/cm^2; 3 weeks; 0-to-100 scale; read-out: Herbicidal Activity Pre-Emergence % Control, Water Grass. The protocol: (§1) An acetone solution of the test compound was prepared by mixing 750 mg of the compound, 220 mg of a nonionic surfactant and 25 ml of acetone. This solution was added to approximately 125 ml of water containing 156 mg of surfactant.
(§2) Seeds of the test vegetation were planted in a pot of […] and the test solution was sprayed uniformly onto the soil surface at a dose of 33 micrograms/cm^2. The pot was watered and placed in a greenhouse. […] At the end of this period, the herbicidal effectiveness of the compound was rated based on the physiological observations. A 0-to-100 scale was used, 0 representing no phytotoxicity, 100 representing complete kill.

Assay [3] deals with Lambsquarter (Chenopodium album). The assay is described as follows: Pre-emergent herbicidal test. The conditions noted are these: 504 h, pre-emergence, 33 micrograms/cm^2, 3 weeks, 0-to-100 scale, read-out: Herbicidal Activity Pre-Emergence % Control, L'Qtr. As for the experimental part:
as §1, §2

The test system of assay [4] is Crabgrass (Digitaria sanguinalis). As to the kind of experiment: Pre-emergent herbicidal test. Conditions: 504 h, pre-emergence, 33 micrograms/cm^2, 3 weeks, 0-to-100 scale, read-out: Herbicidal Activity Pre-Emergence % Control, Crab Grass. As for the experimental part: as §1, §2
For assay [5], the system named is Soybean. As to the kind of experiment: Pre-emergent herbicidal test. The conditions noted are these: Glycine max, 504 h; pre-emergence; 33 micrograms/cm^2; 3 weeks; 0-to-100 scale; read-out: Herbicidal Activity Pre-Emergence % Control, Soybean. The protocol:
as §1, §2

In assay [6] the test system is Mustard (Brassica arvensis). The assay is described as follows: Pre-emergent herbicidal test. The conditions noted are these: 504 h, pre-emergence, 33 micrograms/cm^2, 3 weeks, 0-to-100 scale. As for the experimental part: as §1, §2
Assay [7] deals with Wild Oats (Avena fatura). As to the kind of experiment: Pre-emergent herbicidal test. Conditions: 504 h, pre-emergence, 33 micrograms/cm^2, 3 weeks, 0-to-100 scale. As for the experimental part: as §1, §2
The test system of assay [8] is Pigweed (Amaranthus retraflexus). As to the kind of experiment: Pre-emergent herbicidal test. The conditions noted are these: 504 h, pre-emergence, 33 micrograms/cm^2, 3 weeks, 0-to-100 scale. The protocol: as §1, §2
The subject of assay [9] is Watergrass (Echinochloa crusgalli). The assay is described as follows: Post-emergent herbicidal test. Conditions: Echinochloa crus-galli, 504 h, post-emergence, 33 micrograms/cm^2, 3 weeks, 0-to-100 scale, read-out: Herbicidal Activity Post-Emergence % Control, Water Grass.
In assay [10] the test system is Lambsquarter (Chenopodium album). The assay is described as follows: Post-emergent herbicidal test. The conditions noted are these: 504 h, post-emergence, 33 micrograms/cm^2, 3 weeks, 0-to-100 scale, read-out: Herbicidal Activity Post-Emergence % Control, L'Qtr.
For assay [11], the system named is Crabgrass (Digitaria sanguinalis). The assay is described as follows: Post-emergent herbicidal test. Conditions: 504 h, post-emergence, 33 micrograms/cm^2, 3 weeks, 0-to-100 scale, read-out: Herbicidal Activity Post-Emergence % Control, Crab Grass.
Assay [12] deals with Soybean. The assay is described as follows: Post-emergent herbicidal test. Conditions: Glycine max, 504 h, post-emergence, 33 micrograms/cm^2, 3 weeks, 0-to-100 scale, read-out: Herbicidal Activity Post-Emergence % Control, Soybean.
Assay [13] has as its system Mustard (Brassica arvensis). As to the kind of experiment: Post-emergent herbicidal test. Conditions: 504 h, post-emergence, 33 micrograms/cm^2, 3 weeks, 0-to-100 scale.
In assay [14] the test system is Wild Oats (Avena fatura). The assay is described as follows: Post-emergent herbicidal test. Conditions: 504 h, post-emergence, 33 micrograms/cm^2, 3 weeks, 0-to-100 scale.
Assay [15] relates to Pigweed (Amaranthus retraflexus). As to the kind of experiment: Post-emergent herbicidal test. The conditions noted are these: 504 h, post-emergence, 33 micrograms/cm^2, 3 weeks, 0-to-100 scale.
Assay [16] deals with Tomato Late Blight organism Phytophthora infestans. As to the kind of experiment: whole plant or invertebrate. Conditions: 168 h, read-out: Fungicidal Activity Control %, Tomato L.B.
In assay [17] the test system is grape downy mildew organism Plasmopara viticola. As to the kind of experiment: Grape Downy Mildew control (detached grape leaves). The conditions noted are these: vs untreated check, read-out: Fungicidal Activity Control %, Grape D.M.
Assay [18] deals with celery late blight organism Septoria apii. As to the kind of experiment: whole plant or invertebrate. Conditions: 336 h, read-out: Fungicidal Activity Control %, Celery L.B.
In assay [19] the test system is tomato Early Blight organism, Alternaria solani conidia. The assay is described as follows: Tomato Early Blight control. Conditions: 288 h, about 12 days in greenhouse, vs untreated check, read-out: Fungicidal Activity Control %, Tomato E.B. As for the experimental part: Compounds of the invention were tested for the control of the tomato Early Blight organism, Alternaria solani conidia. Tomato (variety Bonny Best) seedlings of 6 to 7 weeks old were used. The tomato plants were sprayed with a 250 ppm solution of the test compound in an acetone-and-water solution containing a small amount of a nonionic emulsifier. The sprayed plants were inoculated one day later with the organism, placed in the environmental chamber and incubated at […] and 100% relative humidity for 24 hours. Following the incubation, the plants were maintained in a greenhouse for about 12 days. Percent diseases control was based on the percent disease development on untreated check plants.

A further assay has as its system Idaho pinto bean plants. As to the kind of experiment: Axillary Bud Growth Inhibition Of Pinto Bean Plants. Conditions: 288 h; 625-ppm; twelve days after treatment; vs untreated check; read-out: Bud Inhib (percent inhibition of axillary bud growth). The protocol: Compounds of this invention were tested to determine their plant-growth-retarding effects on axillary bud growth of pinto beans.
Idaho pinto bean plants (13-16 days old) having monofoliate leaves fully developed and first trifoliates beginning to unfold were used. All growth 5 mm above the monofoliate leaf node was removed with forceps 1 to 4 hours prior to treatment with the test compounds. Four plants were used for each test compound.
A 625-ppm solution of the test compound in a 2% aqueous acetone solution containing a small amount of a nonionic surfactant was sprayed onto the pinto bean plants until runoff. After drying, the treated plants were transferred to a greenhouse maintained at 20°-23° C. and watered at regular intervals. Twelve days after treatment, the bud growth at the axil of the monofoliate leaf was determined and expressed as percent inhibition of axillary bud growth as compared to untreated check plants.

On to `C=C(Cl)COC(c1cccnc1)c1ccc(Cl)cc1Cl` (stereo not drawn) [Compound 4, 3-pyridyl-2,4-dichlorophenylcarbinol 2-chloroallylether], for which the inhibition at 2000 ppm in the assay on Cotton plants turned out to be 0%. Moreover, the pest or weed control at 250 ppm in assay [1] was found to be 100%; in assay [16], 0%; in [17] it was 27%; in assay [18], 83%; in [19] it was 73%. Also, the pest or weed control at 33 µg/cm2 in assay [2] came to 83%; in assay [3], 73%; in [4], 70%; in assay [6], 30%; in the assay with Wild Oats (Avena fatura) [7], 33%; in assay [8] it was 35%. Further, the plant injury at 33 µg/cm2 with Soybean [5] came to 0%. The pest or weed control at 5000 ppm, 33 µg/cm2 in assay [9] amounted to 0%; in [10] it was 55%; in assay [11], 0%; in [13], 58%; with Wild Oats (Avena fatura) [14], 0%; in assay [15], 45%. In addition, the plant injury at 5000 ppm, 33 µg/cm2 in the assay with Soybean [12] worked out at 28%. The pest or weed control at 625 µg/mL in the assay with Idaho pinto bean plants was 30%.
As for `FC(F)(F)c1cccc(COC(c2cccnc2)c2ccc(Cl)cc2Cl)c1` (stereo not drawn) [Compound 5, 3-pyridyl-2,4-dichlorophenylcarbinol 3-trifluoromethylbenzylether], the inhibition at 2000 ppm with Cotton plants was 65%. The pest or weed control at 250 ppm is 100% in [1]; 0% in assay [16]; 12% in [17]; 91% in assay [18]; 71% in [19]. Also, the pest or weed control at 33 µg/cm2 in [2] was 55%; in [3], 25%; in [4], 70%; in assay [6], 25%; with Wild Oats (Avena fatura) [7] it was 15%; in assay [8] it was 45%. Further, in the assay with Soybean [5], the plant injury at 33 µg/cm2 stood at 30%. Also, the pest or weed control at 5000 ppm, 33 µg/cm2 in assay [9] was 0%; in [10], 63%; in [11], 0%; in assay [13], 40%; with Wild Oats (Avena fatura) [14], 0%; in [15], 55%. For the same molecule, the plant injury at 5000 ppm, 33 µg/cm2 with Soybean [12] was found to be 30%. Further, the pest or weed control at 625 µg/mL with Idaho pinto bean plants was determined as 70%.
In the case of `FC(F)(F)c1cccc(COC(c2ccccc2)c2cccnc2)c1` (stereo not drawn) [Compound 8], the inhibition at 2000 ppm with Cotton plants amounted to 65%. Further, the pest or weed control at 250 ppm in assay [1] is 100%; in assay [16], 0%; in [17], 0%; in assay [18] it was 38%; in [19], 25%. In addition, the pest or weed control at 33 µg/cm2 (in assay [2]; in assay [3]; in [4]; in [6]; with Wild Oats (Avena fatura) [7]; in [8]) was 0% each time. Besides, the plant injury at 33 µg/cm2 with Soybean [5] was 0%. Besides, the pest or weed control at 5000 ppm, 33 µg/cm2 in assay [9] stood at 0%; in assay [10] it was 40%; in assay [11], 0%; in [13] it was 50%; with Wild Oats (Avena fatura) [14], 0%; in [15], 50%. The plant injury at 5000 ppm, 33 µg/cm2 in the assay on Soybean [12] is 25%. In addition, the pest or weed control at 625 µg/mL with Idaho pinto bean plants stood at 60%.
Turning to `C=CCOC(c1cccnc1)c1ccc(Cl)cc1Cl` (stereo not drawn) [Compound 3, 3-pyridyl-2,4-dichlorophenylcarbinol allylether], the inhibition at 2000 ppm with Cotton plants was determined as 0%. Also, the pest or weed control at 250 ppm in [1] was determined as 100%; in assay [16], 0%; in assay [17] it was 15%; in assay [18], 48%; in assay [19] it was 4%. In addition, the pest or weed control at 33 µg/cm2 in assay [2] turned out to be 73%; in assay [3], 98%; in [4], 90%; in assay [6], 45%; with Wild Oats (Avena fatura) [7] it was 0%; in assay [8], 85%. Further, the plant injury at 33 µg/cm2 with Soybean [5] was 0%. Further, the pest or weed control at 5000 ppm, 33 µg/cm2 in assay [9] is 0%; in assay [10] it was 60%; in [11] it was 0%; in [13] it was 25%; with Wild Oats (Avena fatura) [14] it was 0%; in assay [15], 50%. Further, the plant injury at 5000 ppm, 33 µg/cm2 in the assay with Soybean [12] amounted to 33%. Besides, in the assay with Idaho pinto bean plants, the pest or weed control at 625 µg/mL turned out to be 25%.

For orientation: inhibition means the share of the control response that was lost under treatment.
